# Experimental data published in patent US20150290418A1, “TREATMENT OF RESPIRATORY CONDITION USING TARGETED DELIVERY” (Beth Israel Deaconess Medical Center, Inc., priority 2013, published 2015).
# How the values were obtained:
# Format in all cases: in vivo
# airways [1] = experiment: Bronchodilation with targeted versus continuous delivery mode of volatile anesthetics (FIG. 8); conditions: targeted vs continuous delivery
# From the text: The various delivery modes are at least targeted mode and continuous mode. […] Using the systems and methods described here, volatile anesthetics can be selectively delivered for a specified interval during inspiration.
# [2] = Isoflurane traces during targeted and continuous delivery modes (FIG. 9); conditions: two breaths
# From the text: FIG. 9 are exemplary graphs 900 illustrating isoflurane traces during various delivery modes in relation to the delivered tidal volume for two breaths, according to an example embodiment. As shown in graphs 900, the solid line represents the amount of isoflurane in the lungs and the dotted line represents the tidal volume (Vt) over time.
# airways [3] = experiment: Lung measurements for targeted isoflurane delivery during phases of treatment (FIG. 7); conditions: following targeted therapy with isoflurane
# From the text: Severe sustained bronchospasm may be established using continuous i.v. infusion of methacholine. Using the anesthetic ventilator system, a user has the ability to control the timing, peak concentration, and duration of inhaled isoflurane delivery for various ranges of conventional ventilator rates and tidal volumes typical of ICU patients. In one embodiment, the solenoid valves (shown in FIG. 1) can be programmed to deliver isoflurane during the last 180 cc of the delivered inspired volume. Furthermore, none of the inhaled isoflurane delivered during the last portion of the inspiratory period reaches the alveolar compartment to reduce the risk of side effects and systemic absorption.
# FIG. 7 are exemplary graphs 700 illustrating various lung measurements for targeted isoflurane delivery measured during various phases of treatment, according to an example embodiment. As shown in graphs 700, various lung measurements, including lung resistance (RL), lung elastance (EL), and dead space (VD), are measured as described above. […] The estimates of lung resistance and lung elastance may be obtained via multiple linear regression on measured flow and transplumonary pressure waveforms. Anatomic dead space may be estimated using breath-by-breath volume capnography. Capnography is the monitoring of the concentration or partial pressure of carbon dioxide in the respiratory gases. These measurements may be acquired at least under baseline conditions, during bronchoconstriction, after 10-20 minutes of volatile anesthetic treatment, and after maximal bronochodilation with i.v. atrophine. Airway constriction results in increased airway resistance and stiffening of the lung parenchyma, which is often measured with lung resistance and lung elastance. Measuring these parameters help in determining the effectiveness of the targeted delivery treatment.
# respiratory system = experiment: Respiratory impedance spectrum (resistance and elastance) during MCh doses and after intravenous atropine
# Method: By combining specific frequencies such that there is physiologic tidal excursion, in an example embodiment, the EVW is able to maintain gas exchange during conventional ventilation while providing continuous assessment of Z. The EVW differs from other oscillatory waveforms in that it has been modified to allow passive expiration, so Z is calculated from the inspiratory portion of the breath only.
# The mechanical impedance spectrum of the lungs or total respiratory system can be very sensitive indicators of bronchoconstriction and response to therapy. Although mathematically Z is a complex number with real and imaginary parts, it can be expressed in terms of effective frequency dependent resistance and elastance. Measurements can be obtained before and 5 minutes following a deep inspiration (DI) to 35 cm H2O, as well as after administration of intravenous atropine. Under pre and post-DI conditions, both respiratory resistance (Rrs) and elastance (Ers) increased at each frequency with increases in MCh dose. At the lowest frequencies, Rrs increased ˜50% during the highest dose of MCh compared with baseline due to increases in both airway and tissue resistances. The Ers increased by ˜65% as the parenchyma stiffens due to airway-tissue interdependence. […] Thus, the impedance spectra reveal subtleties of airway mechanics and response to therapy not evident from simple Rrs and Ers estimates measured at a single breathing frequency. Coupling these types of data to distributed models of airway and tissue mechanics then allows estimates of the heterogeneity of airway or tissue changes in addition to the overall lung properties.
# [4] = following intravenous atropine, MCh 200 μg/min
# [5] = following intravenous atropine, any frequency
smiles,measurement,setting,value
FCOC(C(F)(F)F)C(F)(F)F [sevoflurane],"bronchodilation, targeted delivery mode compared with continuous delivery mode",airways [1],slightly higher
FC(F)OC(Cl)C(F)(F)F (stereo not shown) [isoflurane],"bronchodilation, targeted delivery mode compared with continuous delivery mode",airways [1],slightly higher
same,"levels of isoflurane agent in the lungs, targeted compared with continuous delivery method",[2]; over time,lower for most of the time
same,"peak level of isoflurane, targeted compared with continuous delivery method",[2],comparable
same,lung elastance (EL),airways [3],decreasing trend
same,lung resistance (RL),airways [3],decreasing trend
same,estimation of dead space (VD),airways [3]; evidence of bronchodilation,increasing
"CC(=O)OC(C)C[N+](C)(C)C (stereo not shown) [MCh, methacholine]",increase in respiratory elastance (Ers),respiratory system; highest dose of MCh,~65%
same,increase in respiratory resistance (Rrs) compared with baseline,"respiratory system; lowest frequencies, highest dose of MCh (200 μg/min)",~50%
CN1[C@@H]2CC[C@H]1C[C@@H](OC(=O)C(CO)c1ccccc1)C2 (stereo partly shown) [atropine],Ers compared with value at the highest MCh dose,respiratory system; [4],decrease
same,Rrs compared with value at the highest MCh dose,respiratory system; [4],decrease
same,Ers compared with baseline value,respiratory system; [5],no significant difference
same,Rrs compared with baseline value,respiratory system; [5],no significant difference
